# According to patent US9920357B2, “Systems and methods for identifying cosmetic agents for hair/scalp care compositions” (The Procter & Gamble Company, priority 2012, dated 2018):
# Legend:
# hair count = assay: Clinical studies of hair count; type: in vivo
# MAOB [1] = biological target: T1, MAOB (Homo sapiens, UniProt P27338); assay: MAOB enzyme inhibition assay; type: biochemical; details: active = >=40% inhibition and dose response
# T1 sequence (P27338 1-520): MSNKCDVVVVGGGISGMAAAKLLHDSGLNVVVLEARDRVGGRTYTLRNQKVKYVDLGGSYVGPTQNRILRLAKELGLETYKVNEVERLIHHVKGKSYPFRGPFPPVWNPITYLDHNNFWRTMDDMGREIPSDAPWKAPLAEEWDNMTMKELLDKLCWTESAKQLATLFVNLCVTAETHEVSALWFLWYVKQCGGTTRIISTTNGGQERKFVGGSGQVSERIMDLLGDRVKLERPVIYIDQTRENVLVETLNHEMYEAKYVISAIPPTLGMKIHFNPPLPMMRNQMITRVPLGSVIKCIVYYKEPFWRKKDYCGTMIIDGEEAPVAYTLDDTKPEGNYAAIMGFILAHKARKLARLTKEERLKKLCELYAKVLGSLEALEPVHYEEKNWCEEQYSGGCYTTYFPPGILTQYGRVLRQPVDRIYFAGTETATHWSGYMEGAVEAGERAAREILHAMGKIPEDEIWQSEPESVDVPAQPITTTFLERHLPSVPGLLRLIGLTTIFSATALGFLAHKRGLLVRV
# Description: (§1) Affy signatures yielded 60 materials that were plated and provided for evaluation in a MAOB enzyme inhibition assay and 46 pure material were tested in a MAOB reporter assay.
# MAOB [2] = assay: MAOB reporter assay; type: cell-based; details: active = >=60% inhibition and dose response
# Description: as §1
SMILES,hair count (hair count),activity in MAOB enzyme inhibition assay (MAOB [1]),activity in MAOB reporter assay (MAOB [2])
O=c1cc(-c2ccc(O)cc2)oc2cc(O)cc(O)c12 [Apigenin],significant hair count benefit,,
CCN(CC)CCCC(C)Nc1c2ccc(Cl)cc2nc2ccc(OC)cc12 (stereo not drawn) [quinacrine],,active and hit,active and hit
